Source: PubChem BioAssay AID248 (DTP/NCI, 2004)
Several values for one entry are separate records, joined by “and”; a condition that tells them apart may be missing. Identical values can stand only once. Inconclusive results and toxic doses are left out. Cut-off read from the data, not from the text of the source: active = T/C of 150% or more; inactive = T/C below 125%.

Test system: L1210 leukemia ip in BDF1 mice, survival T/C
Assay: NCI In Vivo Anticancer Drug Screen. Data for tumor model L1210 Leukemia (intraperitoneal) in B6D2F1 (BDF1) mice
Details: endpoint: mean survival time, higher = longer survival
In short: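 Value reflects the ratio of survival in compound-treated mice to survival in vehicle-treated controls, with both groups carrying the same transplanted tumor.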

[1] = dose: 100.0 mg/kg/injection, schedule: Q04DX002 (ip), vehicle: saline
[2] = dose: 50.0 mg/kg/injection, schedule: Q01DX001 (ip), vehicle: carboxymethylcellulose (CMC)
[3] = dose: 100.0 mg/kg/injection, schedule: Q01DX001 (ip), vehicle: carboxymethylcellulose (CMC)
[4] = dose: 200.0 mg/kg/injection, schedule: Q01DX001 (ip), vehicle: carboxymethylcellulose (CMC)
[5] = dose: 400.0 mg/kg/injection, schedule: Q01DX001 (ip), vehicle: carboxymethylcellulose (CMC)
[6] = dose: 50.0 mg/kg/injection, schedule: Q01DX009 (ip), vehicle: Klucel (hydroxypropylcellulose) (HPC)
[7] = dose: 100.0 mg/kg/injection, schedule: Q01DX009 (ip), vehicle: Klucel (hydroxypropylcellulose) (HPC)
[8] = dose: 200.0 mg/kg/injection, schedule: Q01DX009 (ip), vehicle: Klucel (hydroxypropylcellulose) (HPC)
[9] = dose: 200.0 mg/kg/injection, schedule: Q01DX001 (ip), vehicle: saline
[10] = dose: 100.0 mg/kg/injection, schedule: Q04DX003 (ip), vehicle: saline
[11] = dose: 200.0 mg/kg/injection, schedule: Q04DX003 (ip), vehicle: saline
[12] = dose: 6.25 mg/kg/injection, schedule: Q01DX009 (ip), vehicle: saline
[13] = dose: 12.5 mg/kg/injection, schedule: Q01DX009 (ip), vehicle: saline
[14] = dose: 25.0 mg/kg/injection, schedule: Q01DX009 (ip), vehicle: saline
[15] = dose: 12.5 mg/kg/injection, schedule: Q01DX009 (ip), vehicle: saline with Tween-80
[16] = dose: 25.0 mg/kg/injection, schedule: Q04DX003 (ip), vehicle: saline
[17] = dose: 50.0 mg/kg/injection, schedule: Q04DX003 (ip), vehicle: saline

Measured: T/C

CCNCCC[P+](c1ccccc1)(c1ccccc1)c1ccccc1
inactive: dose: 25.0 mg/kg/injection, schedule: Q04DX002 (ip), vehicle: saline 98 % of control | dose: 50.0 mg/kg/injection, schedule: Q04DX002 (ip), vehicle: saline 105 % of control | [1] 98 % of control and 91 % of control

O=C1c2cccc(S(=O)(=O)O)c2C(=O)c2c1cccc2S(=O)(=O)O
inactive: [2] 109 % of control | [3] 111 % of control | [4] 109 % of control | [5] 103 % of control

Clc1ccccc1C(N1CCCCC1)C(Cl)(Cl)Cl (stereo unspecified)
inactive: [1] 92 % of control | dose: 200.0 mg/kg/injection, schedule: Q04DX002 (ip), vehicle: saline 90 % of control | dose: 400.0 mg/kg/injection, schedule: Q04DX002 (ip), vehicle: saline 92 % of control

Nc1[nH][nH]c(=O)c1N
inactive: [6] 117 % of control | [7] 100 % of control | [8] 100 % of control

O=C(Nc1ccc(F)c(Cl)c1)Nc1ccc(Cl)c(C(F)(F)F)c1
inactive: dose: 100.0 mg/kg/injection, schedule: Q01DX009 (ip), vehicle: saline with Tween-80 88 % of control | dose: 200.0 mg/kg/injection, schedule: Q01DX009 (ip), vehicle: saline with Tween-80 98 % of control

NCCCNCC1C(c2ccccc2)C1c1ccccc1 (stereo unspecified)
inactive: dose: 25.0 mg/kg/injection, schedule: Q04DX002 (ip), vehicle: Klucel (hydroxypropylcellulose) (HPC) 100 % of control | dose: 50.0 mg/kg/injection, schedule: Q04DX002 (ip), vehicle: Klucel (hydroxypropylcellulose) (HPC) 114 % of control

Cc1[nH]c2ccccc2c1C(c1cc(Cl)cc(Cl)c1O)c1c(C)[nH]c2ccccc12
inactive: dose: 100.0 mg/kg/injection, schedule: Q04DX002 (ip), vehicle: saline with Tween-80 87 % of control | dose: 200.0 mg/kg/injection, schedule: Q04DX002 (ip), vehicle: saline with Tween-80 94 % of control | dose: 400.0 mg/kg/injection, schedule: Q04DX002 (ip), vehicle: saline with Tween-80 91 % of control

CN(C)/N=C/c1ccc(N(C)C)cc1
inactive: dose: 25.0 mg/kg/injection, schedule: Q01DX009 (ip), vehicle: Klucel (hydroxypropylcellulose) (HPC) 100 % of control | dose: 25.0 mg/kg/injection, schedule: Q04DX003 (ip), vehicle: Klucel (hydroxypropylcellulose) (HPC) 101 % of control | [6] 112 % of control | dose: 50.0 mg/kg/injection, schedule: Q04DX003 (ip), vehicle: Klucel (hydroxypropylcellulose) (HPC) 96 % of control | dose: 100.0 mg/kg/injection, schedule: Q04DX003 (ip), vehicle: Klucel (hydroxypropylcellulose) (HPC) 111 % of control

COc1ccc2nc3cc(Cl)ccc3c(NCCCCCN3CCCCC3)c2c1
inactive: dose: 5.0 mg/kg/injection, schedule: Q01DX001 (ip), vehicle: saline 97 % of control | dose: 10.0 mg/kg/injection, schedule: Q01DX001 (ip), vehicle: saline 97 % of control | dose: 20.0 mg/kg/injection, schedule: Q01DX001 (ip), vehicle: saline 101 % of control | dose: 40.0 mg/kg/injection, schedule: Q01DX001 (ip), vehicle: saline 106 % of control | dose: 80.0 mg/kg/injection, schedule: Q01DX001 (ip), vehicle: saline 100 % of control | [9] 94 % of control

O=C(Nc1ccccc1)Oc1cccnc1
inactive: dose: 100.0 mg/kg/injection, schedule: Q01DX001 (ip), vehicle: Klucel (hydroxypropylcellulose) (HPC) 98 % of control | dose: 200.0 mg/kg/injection, schedule: Q01DX001 (ip), vehicle: Klucel (hydroxypropylcellulose) (HPC) 100 % of control | dose: 400.0 mg/kg/injection, schedule: Q01DX001 (ip), vehicle: Klucel (hydroxypropylcellulose) (HPC) 98 % of control

CCCC(CN)(CCN1CCOCC1)c1cccc2ccccc12 (stereo unspecified)
inactive: [10] 98 % of control | [11] 95 % of control

COC1OC2COC(c3ccccc3)OC2C(NC(C)=O)C1OC(C)=O (stereo unspecified)
inactive: [10] 98 % of control | [11] 97 % of control | dose: 400.0 mg/kg/injection, schedule: Q04DX003 (ip), vehicle: saline 101 % of control

O=c1[nH]c2cc(Cl)ccc2c2ccccc12
inactive: [3] 99 % of control | [4] 97 % of control | [5] 95 % of control

Cc1ccc(Cl)cc1NC(=O)C(Br)C(Br)C(=O)O (stereo unspecified)
inactive: [7] 91 % of control | [8] 101 % of control

c1ccc(CN2CCNCC2)cc1
inactive: [12] 93 % of control | [13] 93 % of control | [14] 94 % of control

CCCC(CC#N)(CCC)CCC
inactive: dose: 37.5 mg/kg/injection, schedule: Q01DX Z (ip), vehicle: carboxymethylcellulose (CMC) 97 % of control | dose: 75.0 mg/kg/injection, schedule: Q01DX Z (ip), vehicle: carboxymethylcellulose (CMC) 101 % of control | dose: 100.0 mg/kg/injection, schedule: Q01DX Z (ip), vehicle: carboxymethylcellulose (CMC) 95 % of control | dose: 200.0 mg/kg/injection, schedule: Q01DX Z (ip), vehicle: carboxymethylcellulose (CMC) 100 % of control

BrCc1cccc2cccnc12
inactive: dose: 1.56 mg/kg/injection, schedule: Q01DX009 (ip), vehicle: saline with Tween-80 93 % of control | dose: 3.13 mg/kg/injection, schedule: Q01DX009 (ip), vehicle: saline with Tween-80 96 % of control | dose: 6.25 mg/kg/injection, schedule: Q01DX009 (ip), vehicle: saline with Tween-80 91 % of control | [15] 91 % of control

Cc1ccc(O)c(C(=O)c2ccccc2)c1
inactive: [2] 96 % of control | [3] 99 % of control | [4] 89 % of control | [5] 94 % of control

CCN(CC)C(=O)OC/C=C\CC(Cl)(Cl)Cl
inactive: dose: 50.0 mg/kg/injection, schedule: Q01DX009 (ip), vehicle: saline sonified 97 % of control | dose: 100.0 mg/kg/injection, schedule: Q01DX009 (ip), vehicle: saline sonified 111 % of control | dose: 100.0 mg/kg/injection, schedule: Q04DX003 (ip), vehicle: saline sonified 106 % of control | dose: 200.0 mg/kg/injection, schedule: Q01DX009 (ip), vehicle: saline sonified 94 % of control | dose: 200.0 mg/kg/injection, schedule: Q04DX003 (ip), vehicle: saline sonified 106 % of control | dose: 400.0 mg/kg/injection, schedule: Q04DX003 (ip), vehicle: saline sonified 106 % of control

CC1=NCCc2ccccc21
inactive: [12] 92 % of control | [13] 95 % of control | [14] 90 % of control

S=C(S)NCCCNC(=S)S
inactive: dose: 100.0 mg/kg/injection, schedule: Q01DX001 (ip), vehicle: saline 98 % of control and 103 % of control | [9] 95 % of control and 100 % of control | dose: 400.0 mg/kg/injection, schedule: Q01DX001 (ip), vehicle: saline 95 % of control

CCN(CC)CCCC(C)Nc1cc(C)nc2ccc(N(C)C)cc12 (stereo unspecified)
inactive: [15] 104 % of control | dose: 25.0 mg/kg/injection, schedule: Q01DX009 (ip), vehicle: saline with Tween-80 111 % of control | dose: 50.0 mg/kg/injection, schedule: Q01DX009 (ip), vehicle: saline with Tween-80 106 % of control

NC(=O)Nc1ccccc1-c1ccccc1
inactive: dose: 100.0 mg/kg/injection, schedule: Q04DX002 (ip), vehicle: Klucel (hydroxypropylcellulose) (HPC) 103 % of control | dose: 200.0 mg/kg/injection, schedule: Q04DX002 (ip), vehicle: Klucel (hydroxypropylcellulose) (HPC) 109 % of control | dose: 400.0 mg/kg/injection, schedule: Q04DX002 (ip), vehicle: Klucel (hydroxypropylcellulose) (HPC) 103 % of control

Nc1ncnc2[nH]c(=O)[nH]c12
inactive: [16] 105 % of control | [17] 102 % of control | [10] 98 % of control

C=C(Cl)C[N+]12CN3CN(CN(C3)C1)C2
inactive: [13] 108 % of control | dose: 12.5 mg/kg/injection, schedule: Q04DX003 (ip), vehicle: saline 102 % of control | [14] 101 % of control | [16] 104 % of control | dose: 50.0 mg/kg/injection, schedule: Q01DX009 (ip), vehicle: saline 111 % of control | [17] 102 % of control
